Test results published in PMC9186351, “Discovery of N-quinazolinone-4-hydroxy-2-quinolone-3-carboxamides as DNA gyrase B-targeted antibacterial agents” (Journal of Enzyme Inhibition and Medicinal Chemistry, 2022).
In brackets after ≈: the same amount, converted by molar mass. Where two headings read alike, the source gives them in different places.

How the values were obtained:
S. aureus DNA gyrase = settings: Figure 1; cited from earlier work
[1] = Cytotoxicity, SRB assay, HUVEC; assay type: cell-based, human; settings: human, HUVEC cells, read-out: CC50 for HUVECs (positive control)
Protocol: (§1) Cytotoxicity in terms of CC50 was determined by the SRB assay according to the protocol described in our previous publication.[16] Briefly, human HUVECs or HepG2 cells were seeded in the wells of 96-well plates at a concentration of 1 × 10^5 cells per well and incubated at 37 °C for 24 h. […] The cells were fixed with 10% trichloroacetic acid (w/v) at 4 °C for 1 h, washed five times with distilled water, and stained with 0.4% SRB solution at room temperature for another 20 min. The cells were then washed five times with 1% acetic acid and air-dried. The protein-bound dye was dissolved in 10 mM Tris-base solution and shaken for 5 min. The optical density (OD) was measured at 540 nm using a microplate reader to estimate the cell viability (%). With the viability values (%) of the cells treated by the compound at different concentrations as input, the CC50 value was determined by the non-linear regression with normalised dose-response fit implemented in GraphPad Prism version 5 software (GraphPad Software Inc., La Jolla, CA). The experiment was performed in duplicate, and paclitaxel was used as the positive drug for this assay.

[2] = Cytotoxicity, SRB assay, HepG2; assay type: cell-based, human; settings: human, HepG2 cells, read-out: CC50 for HepG2 cells (positive control)
Protocol: as §1

MRSA/VISA strains = assay: MIC by broth microdilution, MRSA and VISA panel; assay type: cell-based, S. aureus; settings: Staphylococcus aureus, ATCC 33591 / ATCC 43300 / ATCC 700699 / MRSA / VISA, read-out: MICs for MRSA and VISA strains
Protocol: (§2) All of the bacterial strains used in this study were obtained from the Collection Centre of Pathogen Microorganism of Chinese Academy of Medical Sciences (CAMS-CCPM-A) in China. All of the isolates were stored at −80 °C and streaked on tryptic soy agar (TSA) plates to obtain overnight cultures. The MICs of the test compounds were determined by the broth microdilution method in accordance with the Clinical and Laboratory Standards Institute (CLSI) guidelines.[20] Cation-adjusted Mueller-Hinton broth (CAMHB) was used as the growth medium for MIC assays. Briefly, 100 μL of serially diluted compounds (starting concentrations were 64 μg/mL) in CAMH broth were added to the wells of 96-well microtiter plates. Then, 10 µL of 5 × 10^6 CFU/mL bacterial culture was added to each well. […] The MIC was defined as the lowest concentration of a compound that inhibited visual growth of the bacteria. Vancomycin was set as the positive control for this assay.

[3] = tested on: methicillin-sensitive S. aureus (MSSA); assay: MIC by broth microdilution, MSSA isolates; assay type: cell-based; settings: Staphylococcus aureus
Protocol: as §2

[4] = tested on: vancomycin intermediate resistant S. aureus (VISA); assay: MIC by broth microdilution, VISA strains; assay type: cell-based
Protocol: as §2

[5] = tested on: methicillin-resistant S. aureus (MRSA); assay: MIC by broth microdilution, MRSA strains; assay type: cell-based; settings: Staphylococcus aureus
Protocol: as §2

[6] = Mouse microsomal stability assay; assay type: in vitro ADME; settings: pH 7.4; mouse liver microsomes, NADPH; read-out: In vitro metabolic stability t1/2 (min) in liver microsomes
Protocol: The mouse liver microsomes were purchased from BioreclamationIVT and stored at −80 °C. The working solutions (0.2 mM) of the control compound, i.e. dextromethorphan, and the test compound dissolved in DMSO were prepared. Terfenadine (5 ng/mL) and tolbutamide (10 ng/mL) dissolved in acetonitrile were used as two quenching solutions. NADPH was dissolved in the phosphate buffer (50 mM K2HPO4, pH 7.4) at 5 mM. The mouse liver microsomes were thawed at 37 °C. The concentration of the stock solution was 20 mg/mL. The working solution (0.629 mg/mL) was prepared by dilution in phosphate buffer.
The working solution of the control/test compound (1.5 µL) was mixed with the liver microsome working solution (238.5 µL) in a 96-well plate and pre-incubated at 37 °C for 5 min. The 5 mM NADPH working solution (60 µL) was added to the solution to initiate the metabolic reaction. At each time point (0, 5, 15, 30, and 60 for the control/test compound), 30 µL of the reaction mixture was sampled and moved to 300 µL of quenching solutions. When the sampling was done, each sample was centrifuged at 4000 rpm at 4 °C for 15 min. The supernatant was analysed with the same HPLC system as the plasma stability assay. The residues (%) of the test/control compound along with the incubation time were calculated based on which the half-life (t1/2) value was determined.

in vitro = in vitro ADME, mouse; settings: mouse plasma, 37 °C; read-out: In vitro metabolic stability t1/2 (min) in plasma
Protocol: The mouse plasma was purchased from Charles River and stored at −20 °C. The stock solution of the test compound dissolved in DMSO (50 mM) was prepared and diluted to obtain a working solution at the concentration of 0.2 mM. The working solution of the control compound, i.e. propantheline, was similarly prepared (0.2 mM). Terfenadine (5 ng/mL) and tolbutamide (10 ng/mL) dissolved in acetonitrile were used as two quenching solutions.
The mouse plasma was pre-warmed at 37 °C for 15 min. The working solution of the test/control compound (2 µL) was then added to the mouse plasma (398 µL) in a 96-well plate. Next, 30 µL of the reaction mixture was sampled and moved to 300 µL of quenching solutions at each time point: 0, 5, 15, 30, 60, and 120 min for the control compound and 0, 15, 30, 60, and 120 min for the test compound. When the sampling was done, each sample was centrifuged at 4000 rpm at 4 °C for 15 min. Then, 100 µL of the supernatant was removed and mixed with 100 µL of distilled water for LC-MS/MS analysis with Shimadzu HPLC system and the AB Sciex API 4000 QTRAP instrument. The remaining compound (%) after incubation in plasma versus the incubation time was plotted. The half-life (t1/2) value of the compound was determined via linear regression from the plot.

Structure (SMILES): CCc1[nH]c(C(=O)NC2CCN(c3nnc(C(C)(C)O)s3)CC2OC)nc1Cl (stereo not drawn) [DS-2969b]
- S. aureus DNA gyrase IC50 (S. aureus DNA gyrase): 0.14 µg/mL

Structure (SMILES): CC(=O)O[C@H]1C(=O)[C@@]2(C)[C@H]([C@H](OC(=O)c3ccccc3)[C@]3(O)C[C@H](OC(=O)[C@H](O)[C@@H](NC(=O)c4ccccc4)c4ccccc4)C(C)=C1C3(C)C)[C@]1(OC(C)=O)CO[C@@H]1C[C@@H]2O [Paclitaxel, reference compound]
- CC50 at 72 h [1]: 1.7 nM
- CC50 at 72 h [2]: 12.7 nM

Structure (SMILES): CN[C@H](CC(C)C)C(=O)N[C@H]1C(=O)N[C@@H](CC(N)=O)C(=O)N[C@H]2C(=O)N[C@H]3C(=O)N[C@H](C(=O)N[C@H](C(=O)O)c4cc(O)cc(O)c4-c4cc3ccc4O)[C@H](O)c3ccc(c(Cl)c3)Oc3cc2cc(c3O[C@@H]2O[C@H](CO)[C@@H](O)[C@H](O)[C@H]2O[C@H]2C[C@](C)(N)[C@H](O)[C@H](C)O2)Oc2ccc(cc2Cl)[C@H]1O [Vancomycin, reference compound]
- MIC (MRSA/VISA strains): 0.5 to 4 µg/mL (≈ 0.345 to 2.76 µM)
- MIC ([3]; ATCC 29213 / BAA-1708 / BAA-976 / MSSA, read-out: MIC over the five MSSA isolates, ATCC 29213, 15, 18-3, BAA976, BAA1708, span over isolates): 0.5 to 1 µg/mL (≈ 0.345 to 0.69 µM)
- MIC ([3]; ATCC 29213 / MSSA, MSSA ATCC 29213): 1 µg/mL (≈ 0.69 µM)
- MIC ([3]; BAA-976 / MSSA, MSSA BAA976): 0.5 µg/mL (≈ 0.345 µM)
- MIC ([3]; BAA-1708 / MSSA, MSSA BAA1708): 1 µg/mL (≈ 0.69 µM)
- MIC ([3]; MSSA, MSSA 15): 1 µg/mL (≈ 0.69 µM)
- MIC ([3]; MSSA, MSSA 18-3): 0.5 µg/mL (≈ 0.345 µM)
- MIC ([4]; Staphylococcus aureus, ATCC 700699 / VISA): 4 µg/mL (≈ 2.76 µM)
- MIC ([4]; Staphylococcus aureus, VISA): 4 µg/mL (≈ 2.76 µM)
- MIC ([4]; VISA HIP 5827): 4.0 µg/mL (≈ 2.76 µM)
- MIC ([5]; ATCC 33591 / MRSA): 2 µg/mL (≈ 1.38 µM)
- MIC ([5]; ATCC 43300 / MRSA): 1 µg/mL (≈ 0.69 µM)
- MIC ([5]; MRSA): 0.5 µg/mL (≈ 0.345 µM)

Structure (SMILES): COc1ccc2c(c1)[C@]13CCCC[C@@H]1[C@H](C2)N(C)CC3 [dextromethorphan, reference compound]
- half-life at 1 µM [6]: 16 min

Structure (SMILES): CC(C)[N+](C)(CCOC(=O)C1c2ccccc2Oc2ccccc21)C(C)C [propantheline, reference compound]
- half-life at 1 µM (in vitro): 66.3 min
